This note sets out measurements from PMC7667569, “Chemical Composition and Biological Activities of Endophytic Fungus Talaromyces Wortmannii LGT-4, Cultured in CYM Medium” (Iranian Journal of Pharmaceutical Research : IJPR, 2020).

Values after ≈ are worked out from the molar mass of the structure shown.

The assay deals with T1, monoamine oxidase (MAO).
T1 construct: gene MAOA
Nature of the assay: MAO inhibition assay (procedure by reference). The following applies: isoenzyme and enzyme source not told.

As a reminder, the IC50 is the concentration needed to halve the response being measured. Low values mean inhibition by little substance, high ones a need for much substance. `O=C1OCc2c(O)cccc21` [compound 1, 4-hydroxyphthalide]: the IC50 was found to be 35 µg/mL (≈ 233 µM).

On to `C[C@@H]1NC(=O)[C@@H]2CCCN2C1=O` [compound 5, Cis-cyclo(L-Ala-L-Pro)], for which the IC50 came to 28 µg/mL (≈ 166 µM).
